Test results taken from patent publication US9266892B2, “Fused pyrazoles as FGFR inhibitors” (Incyte Corporation, priority 2012, dated 2016).

Tests used:
Type in all cases: biochemical
FGFR2 = biological target: T1, FGFR2 (Homo sapiens, UniProt P21802); assay: FGFR Enzymatic Assay (FRET peptide phosphorylation), FGFR2; details: FGFR2 0.01 nM, ATP 100 μM
T1 construct: purchased Millipore or Invitrogen
Protocol: (§1) The inhibitor potency of the Example compounds was measured in an enzyme assay that measures peptide phosphorylation using FRET measurements to detect product formation. Inhibitors were serially diluted in DMSO and a volume of 0.5 μL was transferred to the wells of a 384-well plate. For FGFR3, a 10 μL volume of FGFR3 enzyme (Millipore) diluted in assay buffer (50 mM HEPES, 10 mM MgCl2, 1 mM EGTA, 0.01% Tween-20, 5 mM DTT, pH 7.5) was added to the plate and pre-incubated for 5-10 minutes. Appropriate controls (enzyme blank and enzyme with no inhibitor) were included on the plate. The assay was initiated by the addition of a 10 μL solution containing biotinylated EQEDEPEGDYFEWLE peptide substrate (SEQ ID NO: 1) and ATP (final concentrations of 500 nM and 140 μM respectively) in assay buffer to the wells. The plate was incubated at 25° C. for 1 hr. The reactions were ended with the addition of 10 μL/well of quench solution (50 mM Tris, 150 mM NaCl, 0.5 mg/mL BSA, pH˜7.8, 30 mM EDTA with Perkin Elmer Lance Detection Reagents at 3.75 nM Eu-antibody PY20 and 180 nM APC-Streptavidin). The plate was allowed to equilibrate for 1 hour before scanning the wells on a PheraStar plate reader (BMG Labtech). The enzymes were purchased from Millipore or Invitrogen.
(§2) FGFR1 and FGFR2 were measured under equivalent conditions with the following changes in enzyme and ATP concentrations: FGFR1, 0.02 nM and 210 μM, respectively and FGFR2, 0.01 nM and 100 μM, respectively.
(§3) GraphPad prism3 was used to analyze the data. The IC50 values were derived by fitting the data to the equation for a sigmoidal dose-response with a variable slope. Y=Bottom+(Top−Bottom)/(1+10^((Log IC50−X)*HillSlope)) where X is the logarithm of concentration and Y is the response.

FGFR3 = biological target: T2, FGFR3 (Homo sapiens, UniProt P22607); assay: FGFR Enzymatic Assay (FRET peptide phosphorylation), FGFR3; details: ATP 140 μM, 25° C. for 1 hr
T2 construct: purchased Millipore
T2 sequence (P22607 23-806): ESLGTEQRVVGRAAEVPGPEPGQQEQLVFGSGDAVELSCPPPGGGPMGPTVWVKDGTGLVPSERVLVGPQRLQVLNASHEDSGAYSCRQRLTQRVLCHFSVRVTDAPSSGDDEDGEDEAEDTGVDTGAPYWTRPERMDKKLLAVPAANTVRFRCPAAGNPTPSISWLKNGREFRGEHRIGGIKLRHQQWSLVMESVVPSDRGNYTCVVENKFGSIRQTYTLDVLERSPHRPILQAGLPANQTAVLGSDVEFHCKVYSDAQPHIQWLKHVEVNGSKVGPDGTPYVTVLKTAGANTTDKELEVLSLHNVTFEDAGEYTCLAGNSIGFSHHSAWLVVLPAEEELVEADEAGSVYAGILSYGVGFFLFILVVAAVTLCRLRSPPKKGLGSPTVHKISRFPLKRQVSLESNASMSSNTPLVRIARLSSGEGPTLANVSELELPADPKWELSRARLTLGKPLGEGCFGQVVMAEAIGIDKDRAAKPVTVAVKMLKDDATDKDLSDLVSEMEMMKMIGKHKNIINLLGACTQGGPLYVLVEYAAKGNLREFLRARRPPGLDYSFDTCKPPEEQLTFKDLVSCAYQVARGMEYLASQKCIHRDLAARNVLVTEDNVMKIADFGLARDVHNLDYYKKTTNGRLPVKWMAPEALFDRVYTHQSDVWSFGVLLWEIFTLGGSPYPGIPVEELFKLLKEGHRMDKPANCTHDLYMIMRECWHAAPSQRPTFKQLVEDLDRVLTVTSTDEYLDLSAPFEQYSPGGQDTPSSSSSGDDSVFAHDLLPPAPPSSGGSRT
Protocol: as §1, §3

FGFR1 = biological target: T3, FGFR1 (Homo sapiens, UniProt P11362); assay: FGFR Enzymatic Assay (FRET peptide phosphorylation), FGFR1; details: FGFR1 0.02 nM, ATP 210 μM
T3 construct: purchased Millipore or Invitrogen
T3 sequence (P11362 22-822): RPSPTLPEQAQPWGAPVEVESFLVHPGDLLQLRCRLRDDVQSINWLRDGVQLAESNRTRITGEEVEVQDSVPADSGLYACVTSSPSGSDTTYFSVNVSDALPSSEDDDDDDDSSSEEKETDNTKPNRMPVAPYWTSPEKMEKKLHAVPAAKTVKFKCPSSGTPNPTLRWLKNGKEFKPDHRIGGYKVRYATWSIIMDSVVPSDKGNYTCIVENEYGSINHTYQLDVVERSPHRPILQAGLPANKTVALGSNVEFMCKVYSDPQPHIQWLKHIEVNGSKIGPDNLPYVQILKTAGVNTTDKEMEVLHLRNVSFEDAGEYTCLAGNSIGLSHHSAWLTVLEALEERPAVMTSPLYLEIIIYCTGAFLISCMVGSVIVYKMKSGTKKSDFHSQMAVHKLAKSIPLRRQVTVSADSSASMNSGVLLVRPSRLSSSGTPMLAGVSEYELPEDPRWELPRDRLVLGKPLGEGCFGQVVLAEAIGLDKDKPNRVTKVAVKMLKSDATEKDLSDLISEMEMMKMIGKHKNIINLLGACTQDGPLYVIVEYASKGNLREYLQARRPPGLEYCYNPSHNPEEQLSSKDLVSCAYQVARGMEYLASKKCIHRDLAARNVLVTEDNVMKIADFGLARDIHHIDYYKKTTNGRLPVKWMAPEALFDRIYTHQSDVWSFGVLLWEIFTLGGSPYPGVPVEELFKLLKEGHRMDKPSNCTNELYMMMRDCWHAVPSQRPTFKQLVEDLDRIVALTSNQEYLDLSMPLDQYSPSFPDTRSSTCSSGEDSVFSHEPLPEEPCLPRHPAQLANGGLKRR
Protocol: as §1, §2, §3

T1 sequence (P21802 22-821): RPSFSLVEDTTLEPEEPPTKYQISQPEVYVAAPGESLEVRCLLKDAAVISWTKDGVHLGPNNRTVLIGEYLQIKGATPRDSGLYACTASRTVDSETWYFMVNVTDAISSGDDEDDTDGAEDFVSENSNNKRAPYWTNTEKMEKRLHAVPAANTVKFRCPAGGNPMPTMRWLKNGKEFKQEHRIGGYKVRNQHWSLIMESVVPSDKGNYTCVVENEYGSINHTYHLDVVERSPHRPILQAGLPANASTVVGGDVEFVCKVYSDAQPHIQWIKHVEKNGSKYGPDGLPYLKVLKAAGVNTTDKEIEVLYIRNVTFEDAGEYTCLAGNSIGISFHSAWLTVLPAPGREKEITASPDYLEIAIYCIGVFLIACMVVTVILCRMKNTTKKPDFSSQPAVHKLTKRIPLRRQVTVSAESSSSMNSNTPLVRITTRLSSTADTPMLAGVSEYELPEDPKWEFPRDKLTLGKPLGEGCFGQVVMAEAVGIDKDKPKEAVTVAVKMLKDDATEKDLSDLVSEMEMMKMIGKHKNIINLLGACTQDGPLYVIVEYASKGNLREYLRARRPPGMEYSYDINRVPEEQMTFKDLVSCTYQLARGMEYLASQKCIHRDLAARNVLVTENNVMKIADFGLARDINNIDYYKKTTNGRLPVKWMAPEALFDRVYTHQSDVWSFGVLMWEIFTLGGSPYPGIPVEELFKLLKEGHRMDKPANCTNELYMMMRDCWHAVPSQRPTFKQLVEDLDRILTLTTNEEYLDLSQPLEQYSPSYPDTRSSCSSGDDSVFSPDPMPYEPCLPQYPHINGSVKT

SMILES | IC50 (FGFR2) [nM] | IC50 (FGFR3) [nM] | IC50 (FGFR1) [nM]
COc1cc(OC)c(Cl)c(-c2ncc3c(-c4ccc5c(c4)CN([C@H]4CC[C@@H](O)CC4)C5=O)n[nH]c3n2)c1Cl [Example 22, 5-[6-(2,6-Dichloro-3,5-dimethoxyphenyl)-1H-pyrazolo[3,4-d]pyrimidin-3-yl]-2-(cis-4-hydroxycyclohexyl)isoindolin-1-one] | < 100 | < 100 | < 100
COc1cc(OC)c(Cl)c(-c2ncc3c(-c4ccc5c(c4)CN([C@H]4CC[C@H](O)CC4)C5=O)n[nH]c3n2)c1Cl [Example 23, 5-[6-(2,6-Dichloro-3,5-dimethoxyphenyl)-1H-pyrazolo[3,4-d]pyrimidin-3-yl]-2-(trans-4-hydroxycyclohexyl)isoindolin-1-one] | < 100 | < 100 | < 100
COc1cc(OC)c(F)c(-c2cc3[nH]nc(-c4ccc5c(c4)CC(C(=O)N4CCN(C)CC4)O5)c3cn2)c1F (stereo not drawn) [Example 24, 6-(2,6-Difluoro-3,5-dimethoxyphenyl)-3-{2-[(4-methylpiperazin-1-yl)carbonyl]-2,3-dihydro-1-benzofuran-5-yl}-1H-pyrazolo[4,3-c]pyridine] | < 100 | < 100 | < 100
COc1cc(OC)c(F)c(-c2cc3[nH]nc(-c4ccc(N5CCN(C)CC5)cc4)c3cn2)c1F [Example 25, 6-(2,6-Difluoro-3,5-dimethoxyphenyl)-3-[4-(4-methylpiperazin-1-yl)phenyl]-1H-pyrazolo[4,3-c]pyridine] | < 100 | < 100 | < 100
COc1cc(OC)c(F)c(-c2cc3[nH]nc(-c4ccc(N5CCN(C)CC5)nc4)c3cn2)c1F [Example 26, 6-(2,6-Difluoro-3,5-dimethoxyphenyl)-3-[6-(4-methylpiperazin-1-yl)pyridin-3-yl]-1H-pyrazolo[4,3-c]pyridine] | < 100 | < 100 | < 100
COc1cc(OC)c(F)c(-c2cc3[nH]nc(-c4ccnc(N5CCN(C)CC5)c4)c3cn2)c1F [Example 27, 6-(2,6-Difluoro-3,5-dimethoxyphenyl)-3-[2-(4-methylpiperazin-1-yl)pyridin-4-yl]-1H-pyrazolo[4,3-c]pyridine] | < 100 | < 100 | < 100
COc1cc(OC)c(Cl)c(-c2cc3[nH]nc(-c4ccc5c(c4)CN(C4CC4)C5=O)c3cn2)c1Cl [Example 28, 2-Cyclopropyl-5-[6-(2,6-dichloro-3,5-dimethoxyphenyl)-1H-pyrazolo[4,3-c]pyridin-3-yl]isoindolin-1-one] | < 100 | < 100 | < 100
COc1cc(OC)c(Cl)c(-c2cc3[nH]nc(-c4ccc(OCC(=O)N(C)C)c(C)c4)c3cn2)c1Cl [Example 29, 2-{4-[6-(2,6-Dichloro-3,5-dimethoxyphenyl)-1H-pyrazolo[4,3-c]pyridin-3-yl]-2-methylphenoxy}-N,N-dimethylacetamide] | < 100 | < 100 | < 100
COc1cc(OC)c(Cl)c(-c2cc3[nH]nc(-c4ccc5c(c4)NC(=O)CO5)c3cn2)c1Cl [Example 30, 6-[6-(2,6-Dichloro-3,5-dimethoxyphenyl)-1H-pyrazolo[4,3-c]pyridin-3-yl]-2H-1,4-benzoxazin-3(4H)-one] | < 100 | < 100 | < 100
COc1cc(OC)c(Cl)c(-c2cc3[nH]nc(-c4ccc5c(c4)N(C)C(=O)CO5)c3cn2)c1Cl [Example 31, 6-[6-(2,6-Dichloro-3,5-dimethoxyphenyl)-1H-pyrazolo[4,3-c]pyridin-3-yl]-4-methyl-2H-1,4-benzoxazin-3(4H)-one] | 100 to 500 | < 100 | < 100
COc1cc(OC)c(Cl)c(-c2cc3[nH]nc(-c4ccc5c(c4)COC5=O)c3cn2)c1Cl [Example 32, 5-[6-(2,6-Dichloro-3,5-dimethoxyphenyl)-1H-pyrazolo[4,3-c]pyridin-3-yl]-2-benzofuran-1(3H)-one] | < 100 | < 100 | < 100
COc1cc(OC)c(Cl)c(-c2cc3[nH]nc(-c4cnn(C(C)C#N)c4)c3cn2)c1Cl (stereo not drawn) [Example 33, 2-{4-[6-(2,6-Dichloro-3,5-dimethoxyphenyl)-1H-pyrazolo[4,3-c]pyridin-3-yl]-1H-pyrazol-1-yl}propanenitrile] | < 100 | < 100 | < 100
COc1cc(OC)c(Cl)c(-c2cc3[nH]nc(-c4ccc(C(O)C(=O)N(C)C)c(F)c4)c3cn2)c1Cl (stereo not drawn) [Example 34, 2-{4-[6-(2,6-Dichloro-3,5-dimethoxyphenyl)-1H-pyrazolo[4,3-c]pyridin-3-yl]-2-fluorophenyl}-2-hydroxy-N,N-dimethylacetamide] | < 100 | < 100 | < 100
COc1cc(OC)c(Cl)c(-c2cc3[nH]nc(-c4ccc(OCCN(C)C)cc4)c3cn2)c1Cl [Example 35, 2-{4-[6-(2,6-Dichloro-3,5-dimethoxyphenyl)-1H-pyrazolo[4,3-c]pyridin-3-yl]phenoxy}-N,N-dimethylethanamine] | < 100 | < 100 | < 100
CNC(=O)Cn1cc(-c2n[nH]c3cc(-c4c(Cl)c(OC)cc(OC)c4Cl)ncc23)cn1 [Example 36, 2-{4-[6-(2,6-Dichloro-3,5-dimethoxyphenyl)-1H-pyrazolo[4,3-c]pyridin-3-yl]-1H-pyrazol-1-yl}-N-methylacetamide] | < 100 | < 100 | < 100
COc1cc(OC)c(Cl)c(-c2cc3[nH]nc(-c4cnn(CC(=O)N(C)C)c4)c3cn2)c1Cl [Example 37, 2-{4-[6-(2,6-Dichloro-3,5-dimethoxyphenyl)-1H-pyrazolo[4,3-c]pyridin-3-yl]-1H-pyrazol-1-yl}-N,N-dimethylacetamide] | < 100 | < 100 | < 100
COc1cc(OC)c(Cl)c(-c2cc3[nH]nc(-c4cnn(CC(=O)NC5CC5)c4)c3cn2)c1Cl [Example 38, N-Cyclopropyl-2-{4-[6-(2,6-dichloro-3,5-dimethoxyphenyl)-1H-pyrazolo[4,3-c]pyridin-3-yl]-1H-pyrazol-1-yl}acetamide] | < 100 | < 100 | < 100
COc1cc(OC)c(Cl)c(-c2cc3[nH]nc(-c4cnn(CC(=O)N5CC(O)C5)c4)c3cn2)c1Cl [Example 39, 1-({4-[6-(2,6-Dichloro-3,5-dimethoxyphenyl)-1H-pyrazolo[4,3-c]pyridin-3-yl]-1H-pyrazol-1-yl}acetyl)azetidin-3-ol] | < 100 | < 100 | < 100
COc1cc(OC)c(Cl)c(-c2cc3[nH]nc(-c4cnn(CC(=O)N5CCOCC5)c4)c3cn2)c1Cl [Example 40, 6-(2,6-Dichloro-3,5-dimethoxyphenyl)-3-[1-(2-morpholin-4-yl-2-oxoethyl)-1H-pyrazol-4-yl]-1H-pyrazolo[4,3-c]pyridine] | < 100 | < 100 | < 100
COc1cc(OC)c(Cl)c(-c2cc3[nH]nc(-c4cnn(CC(=O)N5CCN(C)CC5)c4)c3cn2)c1Cl [Example 41, 6-(2,6-Dichloro-3,5-dimethoxyphenyl)-3-{1-[2-(4-methylpiperazin-1-yl)-2-oxoethyl]-1H-pyrazol-4-yl}-1H-pyrazolo[4,3-c]pyridine] | < 100 | < 100 | < 100
COc1cc(OC)c(Cl)c(-c2cc3[nH]nc(-c4cnn(CC(=O)NC5CCN(C)CC5)c4)c3cn2)c1Cl [Example 42, 2-{4-[6-(2,6-Dichloro-3,5-dimethoxyphenyl)-1H-pyrazolo[4,3-c]pyridin-3-yl]-1H-pyrazol-1-yl}-N-(1-methylpiperidin-4-yl)acetamide] | < 100 | < 100 | < 100
COc1cc(OC)c(Cl)c(-c2cc3[nH]nc(-c4cnn(CC(=O)N5CCC(O)C5)c4)c3cn2)c1Cl (stereo not drawn) [Example 43, 1-({4-[6-(2,6-Dichloro-3,5-dimethoxyphenyl)-1H-pyrazolo[4,3-c]pyridin-3-yl]-1H-pyrazol-1-yl}acetyl)pyrrolidin-3-ol] | < 100 | < 100 | < 100
COc1cc(OC)c(Cl)c(-c2cc3[nH]nc(-c4cnn(CC(=O)N5CCC(N(C)C)C5)c4)c3cn2)c1Cl (stereo not drawn) [Example 44, 1-({4-[6-(2,6-Dichloro-3,5-dimethoxyphenyl)-1H-pyrazolo[4,3-c]pyridin-3-yl]-1H-pyrazol-1-yl}acetyl)-N,N-dimethylpyrrolidin-3-amine] | < 100 | < 100 | < 100
